According to patent US20040014814A1, “Compositions and methods for delaying preventing rejuvenating or reversing senescence in cells” (priority 2000, published 2004):

How the values were obtained:
[1] = system: non-enzymic glycation; parameters: key: 0 = zero effect; 10 = maximum effect; settings: summary grade; footnote (2) literature; cited from earlier work
[2] = system: MRC-5 cells; assay: Uptake of radio-labeled (3H) compounds by MRC-5 fibroblast cells; settings: after 48 hours
Protocol: For MRC-5 cells, (3H)—carnosine and acetyl carnosine were added to the medium of near confluent 60mm culture dishes. At different time points cells were washed three times with phosphate buffered saline, cells harvested and cell-associated radioactivity determined using Packard Starscint scintillation fluid.
The rate of uptake of carnosine and acetyl-carnosine by MRC-5 cells was studied using radio-labeled tritiated (3H) carnosine and acetyl-carnosine compounds. The uptake was measured in MRC-5 cells at passage 28 over a 48 hour period (FIG. 3A).

[3] = Fate of compound after cellular uptake; format: cell-based; settings: compared with carnosine
Protocol: Experiments were conducted to determine the fate of acetyl-carnosine and carnosine after cellular uptake. […] A slower metabolism and incorporation into other proteins may be one reason for acetyl-carnosine having higher effective intracellular concentrations compared with carnosine despite its lower overall uptake.

[4] = system: p16^INK4/CDKN2; assay: Immunohistochemical staining of p16 in MRC-5 cell nuclei; format: cell-based, human; settings: senescent cells, old media replaced with supplemented media, after a few days
Protocol: Senescent cells treated with acetyl-carnosine acquire a younger phenotype and no longer express p16 (C). Cells were stained from passage 30 until senescence was reached (approximately passage 65) in order to determine the effectiveness of p16 as a reliable biomarker.
Tissue culture cells were fixed by slowly infusing 4% paraformaldehyde in 0.1M sodium phosphate buffer pH 7.4 into the culture medium. This solution was then replaced with fixative alone and stored at −20° C. for 30 minutes. Cultures were then defrosted for 5 minutes at 37° C. and then washed with 3 changes of the 0.1M sodium phosphate buffer. […]
Three primary antibodies were used in this study: (i) murine monoclonal antibodies against cyclin-dependent kinase inhibitor p27^kipl (clone SX53G8, IgG, Loto38, DAKO, diluted 1:200); (ii) murine monoclonal antibodies against cyclin-dependent kinase inhibitor p21^WAP/CIPI (clone SX118, IgG, Loto88, DAKO, diluted 1:200); and (iii) murine monoclonal antibodies against cyclin-dependent kinase inhibitor p16^INK4/CDKN2 (clone DCS-50, IgG, Lot 077H4821, Sigma, diluted 1:200). […] An estimate of positively stained cells to specific antigens was determined. […]

[5] = Anti-oxidant activity; format: biochemical; settings: parent compound = carnosine
[6] = system: human blood peptidases; assay: Stability in human blood serum / attack by human blood peptidases; format: in vitro ADME
[7] = system: MRC-5 cells; assay: Effect of carnosine derivatives on cell growth / toxicity in MRC-5 cell cultures; format: cell-based, human; parameters: key to Effect on cell growth (score): (0) Toxic to cell growth; (10) Confluent cell growth; settings: MRC-5 cells, scale 0 toxic to 10 confluent
Protocol: MRC -5 cells (fetal lung fibroblasts) were grown in Dulbecco's modification of Eagles' minimum essential medium (DMEM Gibco BRL Cat. No. 12800-017) containing 0.45% glucose, or MEM (Gibco BRL Cat. No. 612800-017) containing 0.1% glucose. Both media contained 10% fetal calf scrum (TRACE Biosciences Cat. No. 15-010-0500V) and Penicillin/Streptomycin 5000 IU, 5000 μg/ml (TRACE Biosciences Cat. No. 21-140-0100V). Cells were grown in […] flasks or in dishes (35 mm or 60 mm, Nunc) at 37° C. with 5% CO2. Cells were harvested with trypsin (TRACE Biosciences Cat. No. 21-163-0100V) and counted with a model ZF6 Coulter Counter. Cells were split in ratios of 1:2 or 1:4. Population doublings (PDs) were calculated from the ratio of the initial number of cells plated to the yield of cells after a period of time. This provides an accurate measure of cell growth, with the split ratios 1:2 and 1:4 corresponding to one and two passages respectively, which are broadly equivalent to population doublings. The media was changed every 5 days or when cells became confluent.
MRC-5 cells were used to observe the toxicity of a series of derivatives of carnosine on cell growth. Cell cultures were grown in DMEM media with 10% fetal calf serum and supplemented with the following carnosine analogues: carnosine ethyl ester, carnosine iso-propyl ester, carnosine n-butyl ester, carnosine n-hexyl ester, N-propyl carnosine, N-hexanoyl carnosine, N-trimethyl acetyl carnosine, N-acetyl carnosine methyl ester, N-acetyl carnosine ethyl ester and N-acetyl carnosine, […] Cells were also grown in DMEM supplemented with carnosine at 20 mM. […] Even at lower concentrations cell morphology was that of cells that have reached senescence i.e. broad flat cells with long process reaching out to other cells. Cell numbers were less than in the control flasks. […] As shown in FIG. 1 Acetyl-carnosine achieved a lifespan 5 PDs greater than the control and 6.7 PDs greater than carnosine over a 43 day period. […] In the early phase of the experiment growth rates were markedly greater than with the other compounds (FIG. 1).

[8] = system: non-enzymic glycation; assay: Anti-glycation activity; format: biochemical

## CC(=O)NCCC(=O)N[C@@H](Cc1cnc[nH]1)C(=O)O [N-acetyl carnosine]
[1]
  anti-glycation (2): 0
[2]; MRC-5 cells
  Number of cells greater than with carnosine: 42%
  Number of cells growing in supplemented media: 3.4×10^6
  Uptake relative to carnosine on a per cell basis: 35%
[2]; cells at passage 28
  Uptake of (3H) compound by MRC-5 cells: 0.16%
[3]
  Residence time in the cell before degradation: considerably longer residence time
[4]
  Expression of p16 in the nucleus: no expression of p16 in the nucleus
[5]
  Antioxidant effectiveness relative to the parent compound: 60%
[6]
  Resistance to attack by human blood peptidases: almost completely resistant
[6]; human blood serum
  Stability in human blood serum: quite stable
[7]; 0.5 mM
  Effect on cell growth (score): 7
[7]; 1 mM
  Effect on cell growth (score): 8
[7]; 2 mM
  Effect on cell growth (score): 9
[7]; 5 mM
  Effect on cell growth (score): 10
[7]; 10 mM
  Effect on cell growth (score): 9
[7]; 20 mM
  Effect on cell growth (score): 8
[8]
  Effectiveness as an antiglycation agent: ineffective
